Molecular target: T1, Lysine decarboxylase (Hafnia alvei) (UniProt P05033)
T1 sequence (whole entry): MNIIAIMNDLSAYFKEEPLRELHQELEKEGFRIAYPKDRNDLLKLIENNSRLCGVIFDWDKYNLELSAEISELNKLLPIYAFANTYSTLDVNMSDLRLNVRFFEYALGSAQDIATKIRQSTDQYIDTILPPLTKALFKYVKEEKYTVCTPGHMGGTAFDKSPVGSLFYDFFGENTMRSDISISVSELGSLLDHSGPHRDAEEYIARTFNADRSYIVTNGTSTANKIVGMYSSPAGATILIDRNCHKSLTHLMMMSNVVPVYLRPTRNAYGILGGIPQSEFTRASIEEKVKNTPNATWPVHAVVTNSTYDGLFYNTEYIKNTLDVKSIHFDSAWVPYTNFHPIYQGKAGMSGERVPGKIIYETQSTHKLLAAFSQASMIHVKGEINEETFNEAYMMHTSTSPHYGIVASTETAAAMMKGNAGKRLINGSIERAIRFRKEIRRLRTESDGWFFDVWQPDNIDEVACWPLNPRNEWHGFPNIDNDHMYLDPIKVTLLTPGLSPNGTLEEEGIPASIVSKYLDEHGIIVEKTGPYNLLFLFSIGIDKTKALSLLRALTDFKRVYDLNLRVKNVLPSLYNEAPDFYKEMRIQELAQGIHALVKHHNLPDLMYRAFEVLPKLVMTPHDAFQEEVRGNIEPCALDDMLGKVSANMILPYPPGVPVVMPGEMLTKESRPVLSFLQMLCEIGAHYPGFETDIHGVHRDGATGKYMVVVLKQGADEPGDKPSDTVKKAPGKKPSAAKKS
Description: Time dependent inhibition of Hafnia alvei lysine decarboxylase assessed as inactivation half life using L-lysine by Kitz-Wilson analysis

C=C(F)[C@](N)(CCCCN)C(=O)O
T1/2: 2.8 min

C=C(F)[C@@](N)(CCCCN)C(=O)O
T1/2: 3.6 min

— ChEMBL document CHEMBL4613261, “Metabolic and Pharmaceutical Aspects of Fluorinated Compounds” (J Med Chem, 2020)
